Experimental data taken from patent publication US6914045B2, “Glycopeptide antibiotics” (Wyeth Holdings Corporation, priority 2001, dated 2005).
≈ marks a conversion by molar mass, not a printed value.

What was measured:
Test in all cases: in vitro antibacterial evaluation, MIC by broth dilution
Format in all cases: cell-based
Enterococcus sp. = details: broth dilution, 18 hours at 35° C.
Method in brief: (§1)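 Broth dilution per NCCLS M7-A2 in Mueller-Hinton II medium, inoculum 5×10^5 CFU/mL, antibiotic range 64-0.06 μg/mL. MIC taken as lowest concentration inhibiting growth; Gram-positive panel includes recent clinical isolates resistant to methicillin, penicillin and/or vancomycin.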

Escherichia coli = system: Escherichia coli
Method in brief: as §1

Staphylococcus sp. = details: broth dilution, 18 hours at 35° C.; for MIC Staphylococcus aureus (GC 1131): strain GC 1131
Method in brief: as §1

Streptococcus sp. = details: broth dilution, 18 hours at 35° C.
Method in brief: as §1

MIC Enterococcus avium (GC 4558) (Enterococcus sp.; Enterococcus avium (GC 4558)): 64 µg/mL (≈ 44.3 µM)
MIC Enterococcus faecalis (ATCC 29212) (Enterococcus sp.; Enterococcus faecalis (ATCC 29212)): >64 µg/mL
MIC Enterococcus faecalis (GC 2242) (Enterococcus sp.; Enterococcus faecalis (GC 2242)): >64 µg/mL
MIC Enterococcus faecalis (GC 2691) (Enterococcus sp.; Enterococcus faecalis (GC 2691)): >64 µg/mL
MIC Enterococcus faecalis (GC 3059) (Enterococcus sp.; Enterococcus faecalis (GC 3059)): >64 µg/mL
MIC Enterococcus faecalis (GC 4552) (Enterococcus sp.; Enterococcus faecalis (GC 4552)): >64 µg/mL
MIC Enterococcus faecalis (GC 4553) (Enterococcus sp.; Enterococcus faecalis (GC 4553)): >64 µg/mL
MIC Enterococcus faecalis (GC 4554) (Enterococcus sp.; Enterococcus faecalis (GC 4554)): >64 µg/mL
MIC Enterococcus faecalis (GC 6189) (Enterococcus sp.; Enterococcus faecalis (GC 6189)): >64 µg/mL
MIC Enterococcus faecium (GC 2243) (Enterococcus sp.; Enterococcus faecium (GC 2243)): >64 µg/mL
MIC Enterococcus faecium (GC 4556) (Enterococcus sp.; Enterococcus faecium (GC 4556)): >64 µg/mL
MIC Enterococcus faecium (GC 4557) (Enterococcus sp.; Enterococcus faecium (GC 4557)): 16 µg/mL (≈ 11.1 µM)
MIC Enterococcus faecalis (ATCC 29212) (Enterococcus sp.; strain ATCC 29212): >64 µg/mL
MIC Enterococcus faecalis (GC 2242) (Enterococcus sp.; strain GC 2242): >64 µg/mL
MIC Enterococcus faecium (GC 2243) (Enterococcus sp.; strain GC 2243): >64 µg/mL
MIC Enterococcus faecalis (GC 2691) (Enterococcus sp.; strain GC 2691): >64 µg/mL
MIC Enterococcus faecalis (GC 3059) (Enterococcus sp.; strain GC 3059): >64 µg/mL
MIC Enterococcus faecalis (GC 4552) (Enterococcus sp.; strain GC 4552): >64 µg/mL
MIC Enterococcus faecalis (GC 4553) (Enterococcus sp.; strain GC 4553): >64 µg/mL
MIC Enterococcus faecalis (GC 4554) (Enterococcus sp.; strain GC 4554): >64 µg/mL
MIC Enterococcus faecium (GC 4556) (Enterococcus sp.; strain GC 4556): >64 µg/mL
MIC Enterococcus faecium (GC 4557) (Enterococcus sp.; strain GC 4557): 16 µg/mL (≈ 11.1 µM)
MIC Enterococcus avium (GC 4558) (Enterococcus sp.; strain GC 4558): 64 µg/mL (≈ 44.3 µM)
MIC Enterococcus faecalis (GC 6189) (Enterococcus sp.; strain GC 6189): >64 µg/mL
MIC Escherichia coli (ATCC 25922) (Escherichia coli; strain ATCC 25922, 18 hours at 35° C.): >64 µg/mL
MIC Escherichia coli (GC 4559) (Escherichia coli; strain GC 4559, 18 hours at 35° C.): >64 µg/mL
MIC Escherichia coli (GC 4560) (Escherichia coli; strain GC 4560, 18 hours at 35° C.): 16 µg/mL (≈ 11.1 µM)
MIC Staphylococcus aureus (GC 1131) (Staphylococcus sp.; inoculum 5×10^5 CFU/mL): 32 µg/mL (≈ 22.2 µM)
MIC Staphylococcus aureus (ATCC 29213) (Staphylococcus sp.; strain ATCC 29213): 32 µg/mL (≈ 22.2 µM)
MIC Staphylococcus aureus (GC 1131) (Staphylococcus sp.): 32 µg/mL (≈ 22.2 µM)
MIC Staphylococcus aureus (GC 3051) (Staphylococcus sp.; strain GC 3051): 32 µg/mL (≈ 22.2 µM)
MIC Staphylococcus aureus (GC 3053) (Staphylococcus sp.; strain GC 3053): 32 µg/mL (≈ 22.2 µM)
MIC Staphylococcus aureus (GC 4541) (Staphylococcus sp.; strain GC 4541): 16 µg/mL (≈ 11.1 µM)
MIC Staphylococcus aureus (GC 4542) (Staphylococcus sp.; strain GC 4542): 32 µg/mL (≈ 22.2 µM)
MIC Staphylococcus aureus-SMITH (GC 4543) (Staphylococcus sp.; strain GC 4543): 16 µg/mL (≈ 11.1 µM)
MIC Staphylococcus aureus (GC 4544) (Staphylococcus sp.; strain GC 4544): 32 µg/mL (≈ 22.2 µM)
MIC Staphylococcus aureus (GC 4545) (Staphylococcus sp.; strain GC 4545): 16 µg/mL (≈ 11.1 µM)
MIC Coagulase Negative Staphylococcus (GC 4547) (Staphylococcus sp.; strain GC 4547): 16 µg/mL (≈ 11.1 µM)
MIC Coagulase Negative Staphylococcus (GC 4548) (Staphylococcus sp.; strain GC 4548): 8 µg/mL (≈ 5.54 µM)
MIC Coagulase Negative Staphylococcus (GC 4549) (Staphylococcus sp.; strain GC 4549): 8 µg/mL (≈ 5.54 µM)
MIC Coagulase Negative Staphylococcus (GC 4551) (Staphylococcus sp.; strain GC 4551): 32 µg/mL (≈ 22.2 µM)
MIC Coagulase Negative Staphylococcus (GC 6257) (Staphylococcus sp.; strain GC 6257): 8 µg/mL (≈ 5.54 µM)
MIC Staphylococcus aureus-SMITH (GC 4543) (Staphylococcus sp.; strain SMITH GC 4543): 16 µg/mL (≈ 11.1 µM)
MIC Streptococcus agalactiae (GC 4564) (Streptococcus sp.; Streptococcus agalactiae (GC 4564)): 32 µg/mL (≈ 22.2 µM)
MIC Streptococcus pneumoniae (ATCC 6301) (Streptococcus sp.; Streptococcus pneumoniae (ATCC 6301)): 8 µg/mL (≈ 5.54 µM)
MIC Streptococcus pneumoniae (GC 1894) (Streptococcus sp.; Streptococcus pneumoniae (GC 1894)): 8 µg/mL (≈ 5.54 µM)
MIC Streptococcus pneumoniae (GC 4565) (Streptococcus sp.; Streptococcus pneumoniae (GC 4565)): 16 µg/mL (≈ 11.1 µM)
MIC Streptococcus pyogenes (GC 4563) (Streptococcus sp.; Streptococcus pyogenes (GC 4563)): 16 µg/mL (≈ 11.1 µM)
MIC Streptococcus pneumoniae (ATCC 6301) (Streptococcus sp.; strain ATCC 6301): 8 µg/mL (≈ 5.54 µM)
MIC Streptococcus pneumoniae (GC 1894) (Streptococcus sp.; strain GC 1894): 8 µg/mL (≈ 5.54 µM)
MIC Streptococcus pyogenes (GC 4563) (Streptococcus sp.; strain GC 4563): 16 µg/mL (≈ 11.1 µM)
MIC Streptococcus agalactiae (GC 4564) (Streptococcus sp.; strain GC 4564): 32 µg/mL (≈ 22.2 µM)
MIC Streptococcus pneumoniae (GC 4565) (Streptococcus sp.; strain GC 4565): 16 µg/mL (≈ 11.1 µM)
SMILES: COc1cc(OC)cc(C2OC3C(OC4C(CO)OC(Oc5ccc(CC6NC(=O)C(C(C)c7ccccc7)NC(=O)CNC(=O)C(CO)NC(=O)C(C(O)C7CNC(=N)N7C7OC(CO)C(O)C(O)C7O)NC(=O)C(C(O)C7CNC(=N)N7)NC6=O)cc5)C(O)C4O)OC(CO)C(O)C3O2)c1 (stereo not drawn) [Example 150a]
MIC Staphylococcus haemolyticus (GC 4546) (Staphylococcus sp.; strain GC 4546): 16 µg/mL (≈ 11.1 µM)
